Laboratory results published in patent US20220347279A1, “VCX/Y PEPTIDES AND USE THEREOF” (BOARD OF REGENTS, THE UNIVERSITY OF TEXAS SYSTEM, priority 2019, published 2022).
Each block holds one substance with its values, some of them ahead of it.

Key:
Assay type in all cases: cell-based
[1] = system: VCX54 TCR-T cells; assay: VCX118 peptide cross reaction detection (peptide titration on T2 cells, ICS); settings: T2 cells pulsed with high concentration of peptide
Procedure: For VCX118 peptide cross reaction detection, different concentration of VCX118 peptide were used to pulse T2 cells and then co-cultured with VCX54 TCR-T cells. […] M26 peptide was used as a negative control (FIG. 2).
(§1) Intracellular cytokine staining (ICS) assay: The T cells were incubated with target cells at 10:1 ration in the presence of brefeldin A (BFA) at 37° C. overnight. After co-culturing, the T cells were harvested and washed. The cells were stained with flow antibody anti surface marker first. After that, the cells were washed and fixed with Fix Buffer and then were permeabilized using Permeabilizing Solution (eBioscience). Permeabilized cells are then stained with intracellular cytokine flow antibody. Finally, the level of cytokine producing in the cells was analyzed using FACS.

[2] = system: VCX54 TCR-T cells; assay: Overlap peptide library screening: peptide-pulsed T2 cells co-cultured with VCX54 TCR-T, ICS of activation markers; settings: peptide pulsed to T2 cells, overnight co-culture
Procedure: Overlap peptide library screening was performed for the recognition target peptide of VCX54 TCR-T cells (FIG. 1). The 9-mer peptide with 8 amino acid overlap peptide library covering the whole length of VCX3A protein was screened for the VCX54 TCR-T cell recognized target. The peptide was pulsed to T2 cell one by one and co-cultured with VCX54 TCR-T. After overnight culturing, the activated marker of T cells such as CD137, CD69, IFN-r and TNFa were detected using intracellular cytokine staining (ICS).
as §1

[3] = system: VCX54 TCR-T cells; assay: VCX54 TCR-T recognition of longer peptides comprising VCX118 (ICS); settings: peptides pulsed to T2 cells, co-cultured with VCX54 TCR-T cells
Procedure: Different length of peptides with VCX118 were pulsed to T2 cells and co-cultured with VCX54 TCR-T cells. The VCX118 peptide was used as a control.
as §1

[4] = biological target: T1, HLA-A2 (Homo sapiens, UniProt P04439, D140Y/D185E/D98H/E176V/E277Q/G131W/G231S/I119V/I121R/I166T/I218V/L300P/L318F/N151K/N90K/P208A/P217A/Q86G/Q94H/R138H/R169H/T345S); assay: VCX118 peptide HLA-A2 binding assay (HLA-A2 stability analysis on T2 cells); settings: T2 cells pulsed with different concentrations of peptide
T1 construct: endogenous in cells; host or cells: T2 cells
Procedure: Different concentrations of VCX118 peptide were pulsed to T2 cells, and the HLA-A2 stability analysis was performed to detect the VCX118 peptide binding ability. VCX54, M26 and M27 peptide were used as control.

[5] = system: VCX54 TCR-T cells; assay: Peptide titration killing assay (calcein-AM quenching assay); settings: peptide-pulsed T2 cells labeled with Calcein-AM, high concentrations
Excerpt: Different concentrations of VCX118 peptide were pulsed to T2 cells, labeled with Calcein-AM, and co-cultured with VCX54 TCR-T cells. The calcein-AM quenching assay was used to detect VCX54 TCR-T killing ability in response to the antigen.

binding ability to HLA-A2 [4]: weak binding ability
Substance: SEVEEPLSQ (listed as Homo sapiens) [VCX118, 9-mer VCX/Y peptide shared with all VCX/Y family members]
ICS response relative to VCX54 original peptide [1]: higher than the VCX54 original peptide | cross recognition by VCX54 TCR-T (ICS) [1]: cross recognized by VCX54 TCR-T | induction of response of VCX54 TCR-T (CD137, CD69, IFN-r, TNFa by ICS) [2]: also be able to induce the response of VCX54 TCR-T cells | recognition by VCX54 TCR-T cells (ICS) [3]: only recognized the VCX118 peptide | VCX54 TCR-T killing response relative to VCX54 peptide [5]: higher than the VCX54 peptide

Substance: VCX54: the target (original) 9-mer peptide of VCX3A recognized by VCX54 TCR-T cells; sequence not printed (GAATKMAAV) [reference compound]
induction of response of VCX54 TCR-T (CD137, CD69, IFN-r, TNFa by ICS) [2]: able to induce the response of VCX54 TCR-T
